Data taken from US7671054B1, “Reverse-turn mimetics and method relating thereto” (Choongwae Pharma Corporation, priority 2001, dated 2010).

Assays:
[1] = system: TCF/β-catenin reporter gene transcription in PC-12 PS-1/L286V cells; test: TOPFLASH luciferase assay in differentiated PC-12 cells; format: cell-based, Rat; details: PS-1/L286V mutant PC-12 cells; 10 μM plus NGF
Experimental: Differentiated PC-12/L286V cells were treated with increasing concentrations of this compound for 4 hours. Transfection was then initiated after this treatment period.
Transfection. PC-12 cells were cultured and differentiated on 60-mm dishes. At the end of the 10-day differentiation period, cells were transfected with 2 μg reporter constructs, TOPFLASH and FOPFLASH, per 60-mm dish. Transfections were performed using Superfect (Qiagen) according to manufacturer's instructions.
Luciferase Assays. Cells were lysed, 6 hours after transfections, in 100 μl of Cell Culture Lysis Reagent (Promega, Madison, Wis.), and scraped into microcentrifuge tubes. Tubes were then centrifuged briefly (about 10 seconds) at 12000 rpm to pellet cell debris. Luciferase activity was measured on 20 μl of cell lysate and 100 μl substrate from the Luciferase Assay System (Promega). Luciferase activity was measure using Packard LumiCount. (Hewlett Packard). Quantitation of luciferase was performed in triplicates, and repeated in at least three independent experiments.

caspase 2 = test: Caspase 2 activity in cultured tumor cells; format: cell-based; details: co-treatment of stausporine (0.5 μM) and Compound D

Compound: O=C1[C@H](Cc2ccc(O)cc2)N2C(=O)CCN(C(=O)NCc3ccccc3)[C@H]2CN1Cc1cccc2ccccc12 [Compound D]
- TCF/β-catenin reporter gene transcription [1]: decreased TCF/β-catenin reporter gene transcription
- caspase 2 activity, co-treatment (caspase 2): not a synergic stimuation of the caspase 2 activity
